Measured values taken from US11377442B2, “Small molecule agonists and antagonists of NR2F6 activity” (ZANDER THERAPEUTICS, INC., priority 2016, dated 2022).
Read-outs that look alike come from different tables or passages of the source.

What was measured:
Format in all cases: cell-based
[1] = biological target: T1, NR2F6 (Homo sapiens, UniProt P10588); assay: NR2F6 agonist screening, Firefly signal cmpd/DMSO
T1 construct: expressed in transfected cells; also transient transfection
T1 sequence (P10588 1-404): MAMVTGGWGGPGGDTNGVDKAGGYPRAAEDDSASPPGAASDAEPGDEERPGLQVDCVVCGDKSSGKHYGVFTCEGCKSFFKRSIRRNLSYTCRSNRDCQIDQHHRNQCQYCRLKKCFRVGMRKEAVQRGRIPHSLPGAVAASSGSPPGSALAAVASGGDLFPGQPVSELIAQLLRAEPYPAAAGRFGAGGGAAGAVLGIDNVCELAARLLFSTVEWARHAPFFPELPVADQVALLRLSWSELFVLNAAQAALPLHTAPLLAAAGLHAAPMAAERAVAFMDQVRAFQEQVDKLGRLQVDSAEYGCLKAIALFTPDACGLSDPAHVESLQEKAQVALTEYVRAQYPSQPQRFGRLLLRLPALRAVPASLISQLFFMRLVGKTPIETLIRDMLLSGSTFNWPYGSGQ

[2] = system: Renilla; assay: Renilla signal in NR2F6 agonist screening, cmpd/DMSO; settings: Renilla, F4
[3] = biological target: T2, NR2F6 LBD (Homo sapiens, UniProt P10588); assay: NR2F6 LBD transient transfection; settings: LBD
T2 construct: expressed in transfected cells
T2 sequence (P10588 165-393 limits assumed): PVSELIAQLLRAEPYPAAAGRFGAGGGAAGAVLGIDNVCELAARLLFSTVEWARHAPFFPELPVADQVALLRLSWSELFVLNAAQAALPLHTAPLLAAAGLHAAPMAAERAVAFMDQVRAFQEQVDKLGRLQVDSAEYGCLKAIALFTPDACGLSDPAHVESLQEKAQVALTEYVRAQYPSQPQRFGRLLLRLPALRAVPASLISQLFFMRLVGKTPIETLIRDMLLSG
Method: FIGS. 27A and 27B show NR2F6 and LBD transient transfection, respectively, for Compound D28. Higher concentrations were excluded due to lower signal (tox effect). FIGS. 27C and 27D show NR2F6 and LBD transient transfection at different concentrations for different compounds. 9 compounds were tested on LBD transfected cells (40, 10, 2 and 0.5 μM, 4 replicates). FIGS. 27E and 27F show toxicity of Compound D28. 9 compounds were tested for cytotoxicity on LBD transfected cells (40, 10, 2 and 0.5 μM, 4 replicates). […] Cytotoxicity normalized to DMSO is shown in FIG. 27F (0% cytotoxicity corresponds to DMSO signal, 100%—zero signal).
FIGS. 34A and 34B show NR2F6 LBD transient transfection for Compound E21. 9 compounds were tested on LBD transfected cells (40, 10, 2 and 0.5 μM, 4 replicates). FIGS. 34C and 34D show NR2F6 and LBD transient transfection at different concentrations for different compounds. 9 compounds were tested on LBD transfected cells (40, 10, 2 and 0.5 μM, 4 replicates). […] Cytotoxicity normalized to DMSO is shown in FIG. 34D (0% cytotoxicity corresponds to DMSO signal, 100%—zero signal). All compounds were tested at 5, 10, 25 and 50 uM in duplicates. Dog PBMC (1×10^6 cells/mL) were activated by 10 ng/mL PMA+500 ng/mL ionomycin. Data were normalized to controls with (100%)/without (0%) PMA+ionomycin activation.
FIGS. 39A and 39B show NR2F6 LBD transient transfection for Compound F1. 9 compounds were tested on LBD transfected cells (40, 10, 2 and 0.5 μM, 4 replicates). FIGS. 39C and 39D show toxicity of NR2F6 LBD transient transfection. 9 compounds were tested for cytotoxicity on LBD transfected cells (40, 10, 2 and 0.5 μM, 4 replicates). Tox effect causes lower signal compared to DMSO. Cytotoxicity normalized to DMSO is shown in FIG. 39D (0% cytotoxicity corresponds to DMSO signal, 100%—zero signal).

[4] = system: HEK293 pGL4; assay: Firefly_pGL signal, cmpd/DMSO (pGL4 control cells); settings: Homo sapiens
[5] = read-out: Renilla, F4, cmpd/DMSO (mean)
[6] = 1% FBS, read-out: Renilla, F4, 1% FBS, cmpd/DMSO (mean)
[7] = 10% FBS, read-out: Renilla, F4, 10% FBS, cmpd/DMSO (mean)
[8] = HEK293, 0.5 uM, pGL4, read-out: Firefly pGL4, cmpd/DMSO (mean)
[9] = HEK293, 2 uM, pGL4, read-out: Firefly pGL4, cmpd/DMSO (mean)
[10] = HEK293, 10 uM, pGL4, read-out: Firefly pGL4, cmpd/DMSO (mean)
[11] = HEK293, 40 uM, pGL4, read-out: Firefly pGL4, cmpd/DMSO (mean)
[12] = HEK293, pGL4, 1% FBS, 0.5 uM, read-out: Firefly, pGL4, 1% FBS, cmpd/DMSO (mean)
[13] = HEK293, pGL4, 1% FBS, 2 uM, read-out: Firefly, pGL4, 1% FBS, cmpd/DMSO (mean)
[14] = HEK293, pGL4, 1% FBS, 10 uM, read-out: Firefly, pGL4, 1% FBS, cmpd/DMSO (mean)
[15] = HEK293, pGL4, 1% FBS, 40 uM, read-out: Firefly, pGL4, 1% FBS, cmpd/DMSO (mean)
[16] = HEK293, pGL4, 10% FBS, 0.5 uM, read-out: Firefly, pGL4, 10% FBS, cmpd/DMSO (mean)
[17] = HEK293, pGL4, 10% FBS, 2 uM, read-out: Firefly, pGL4, 10% FBS, cmpd/DMSO (mean)
[18] = HEK293, pGL4, 10% FBS, 10 uM, read-out: Firefly, pGL4, 10% FBS, cmpd/DMSO (mean)
[19] = HEK293, pGL4, 10% FBS, 40 uM, read-out: Firefly, pGL4, 10% FBS, cmpd/DMSO (mean)

With `COCCN[C@H]1CS(=O)(=O)C[C@@H]1S(=O)(=O)c1cccs1` [Compound D107] the “Firefly F4, cmpd/DMSO (mean)” value ([1]; 0.5 uM) was 1.3, the “Firefly F4, cmpd/DMSO (mean)” value ([1]; 2 uM) was 1.6 and the “Firefly F4, cmpd/DMSO (mean)” value ([1]; 10 uM) was 2.2. The “Firefly F4, cmpd/DMSO (mean)” value ([1]; 40 uM) was 4.0, the “F4, Firefly/Renilla for S/B(F4) > 3” value ([1]; 1% FBS, 40 uM) was 2.2 and the “Firefly, F4/pGL4 for S/B(F4) > 3” value ([1]; 1% FBS, 40 uM) was 2.6. The “F4, Firefly/Renilla for S/B(F4) > 3” value ([1]; 10% FBS, 40 uM) was 2.9, the “Firefly, F4/pGL4 for S/B(F4) > 3” value ([1]; 10% FBS, 40 uM) was 2.7 and the “Firefly, F4, 1% FBS, cmpd/DMSO (mean)” value ([1]; 1% FBS, 0.5 uM) was 1.5. For the same compound, the “Firefly, F4, 1% FBS, cmpd/DMSO (mean)” value ([1]; 1% FBS, 2 uM) was 0.8, the “Firefly, F4, 1% FBS, cmpd/DMSO (mean)” value ([1]; 1% FBS, 10 uM) was 1.4 and the “Firefly, F4, 1% FBS, cmpd/DMSO (mean)” value ([1]; 1% FBS, 40 uM) was 3.8. For the same compound, the “Firefly, F4, 10% FBS, cmpd/DMSO (mean)” value ([1]; 10% FBS, 0.5 uM) was 0.8, the “Firefly, F4, 10% FBS, cmpd/DMSO (mean)” value ([1]; 10% FBS, 2 uM) was 1.4 and the “Firefly, F4, 10% FBS, cmpd/DMSO (mean)” value ([1]; 10% FBS, 10 uM) was 1.5. The “Firefly, F4, 10% FBS, cmpd/DMSO (mean)” value ([1]; 10% FBS, 40 uM) was 6.1, the fold induction at 0.5 µM [2, 5] was 1.1 and the fold induction at 2 µM [2, 5] was 1. The fold induction at 10 µM [2, 5] was 1.2, the fold induction at 40 µM [2, 5] was 1.5 and the fold induction at 0.5 µM [2, 6] was 0.9. It also gave a fold induction at 2 µM [2, 6] of 1.2, a fold induction at 10 µM [2, 6] of 1.3 and a fold induction at 40 µM [2, 6] of 1.8. For the same compound, the fold induction at 0.5 µM [2, 7] was 1, the fold induction at 2 µM [2, 7] was 1 and the fold induction at 10 µM [2, 7] was 1.3. For the same compound, the fold induction at 40 µM [2, 7] was 2.1, the “Firefly LBD, cmpd/DMSO (mean)” value ([3]; 0.5 uM) was 0.9 and the “Firefly LBD, cmpd/DMSO (mean)” value ([3]; 2 uM) was 1.1. For the same compound, the “Firefly LBD, cmpd/DMSO (mean)” value ([3]; 10 uM) was 2.2, the “Firefly LBD, cmpd/DMSO (mean)” value ([3]; 40 uM) was 2.2 and the fold induction at 0.5 µM [4, 8] was 1.2. For the same compound, the fold induction at 2 µM [4, 9] was 1.5, the fold induction at 10 µM [4, 10] was 2 and the fold induction at 40 µM [4, 11] was 2.5. For the same compound, the fold induction at 0.5 µM [4, 12] was 1.3, the fold induction at 2 µM [4, 13] was 1.4 and the fold induction at 10 µM [4, 14] was 1.8. For the same compound, the fold induction at 40 µM [4, 15] was 1.4, the fold induction at 0.5 µM [4, 16] was 1.1 and the fold induction at 2 µM [4, 17] was 1.3. It also gave a fold induction at 10 µM [4, 18] of 1.7 and a fold induction at 40 µM [4, 19] of 2.3.

For `O=S1(=O)C[C@H](NCc2ccncc2)[C@@H](S(=O)(=O)c2cccs2)C1` [Compound D108], the “Firefly F4, cmpd/DMSO (mean)” value ([1]; 0.5 uM) was 1.0, the “Firefly F4, cmpd/DMSO (mean)” value ([1]; 2 uM) was 1.3 and the “Firefly F4, cmpd/DMSO (mean)” value ([1]; 10 uM) was 1.3. The “Firefly F4, cmpd/DMSO (mean)” value ([1]; 40 uM) was 1.9, the “Firefly, F4, 1% FBS, cmpd/DMSO (mean)” value ([1]; 1% FBS, 0.5 uM) was 1.2 and the “Firefly, F4, 1% FBS, cmpd/DMSO (mean)” value ([1]; 1% FBS, 2 uM) was 1.1. For the same compound, the “Firefly, F4, 1% FBS, cmpd/DMSO (mean)” value ([1]; 1% FBS, 10 uM) was 1.1, the “Firefly, F4, 1% FBS, cmpd/DMSO (mean)” value ([1]; 1% FBS, 40 uM) was 1.8 and the “Firefly, F4, 10% FBS, cmpd/DMSO (mean)” value ([1]; 10% FBS, 0.5 uM) was 1.2. For the same compound, the “Firefly, F4, 10% FBS, cmpd/DMSO (mean)” value ([1]; 10% FBS, 2 uM) was 1.0, the “Firefly, F4, 10% FBS, cmpd/DMSO (mean)” value ([1]; 10% FBS, 10 uM) was 1.1 and the “Firefly, F4, 10% FBS, cmpd/DMSO (mean)” value ([1]; 10% FBS, 40 uM) was 2.2. For the same compound, the fold induction at 0.5 µM [2, 5] was 1, the fold induction at 2 µM [2, 5] was 1 and the fold induction at 10 µM [2, 5] was 1.1. For the same compound, the fold induction at 40 µM [2, 5] was 1.2, the fold induction at 0.5 µM [2, 6] was 1 and the fold induction at 2 µM [2, 6] was 1.2. For the same compound, the fold induction at 10 µM [2, 6] was 1.1, the fold induction at 40 µM [2, 6] was 1.4 and the fold induction at 0.5 µM [2, 7] was 1. The fold induction at 2 µM [2, 7] was 0.9, the fold induction at 10 µM [2, 7] was 1 and the fold induction at 40 µM [2, 7] was 1.4. The “Firefly LBD, cmpd/DMSO (mean)” value ([3]; 0.5 uM) was 1.0, the “Firefly LBD, cmpd/DMSO (mean)” value ([3]; 2 uM) was 1.4 and the “Firefly LBD, cmpd/DMSO (mean)” value ([3]; 10 uM) was 1.3. The “Firefly LBD, cmpd/DMSO (mean)” value ([3]; 40 uM) was 2.1, the fold induction at 0.5 µM [4, 8] was 0.9 and the fold induction at 2 µM [4, 9] was 1. For the same compound, the fold induction at 10 µM [4, 10] was 1.2, the fold induction at 40 µM [4, 11] was 1.5 and the fold induction at 0.5 µM [4, 12] was 1.5. It also gave a fold induction at 2 µM [4, 13] of 1.2, a fold induction at 10 µM [4, 14] of 1.2 and a fold induction at 40 µM [4, 15] of 1.1. It also gave a fold induction at 0.5 µM [4, 16] of 1.1, a fold induction at 2 µM [4, 17] of 1.1 and a fold induction at 10 µM [4, 18] of 1.1. For the same compound, the fold induction at 40 µM [4, 19] was 1.4.
